From patent publication US20180153995A1, “USE OF ANTIMICROBIAL POLYMERS FOR RE-SENSITIZATION OF MICROORGANISMS UPON EMERGENCE OF RESISTANCE TO ANTI-MICROBIAL AGENTS” (Technion Research & Development Foundation Limited, priority 2008, published 2018)
≈ marks a conversion by molar mass, not a printed value. Where two headings read alike, the source gives them in different places. Square brackets hold non-standard residues; d marks the D form. Peptide text beside a SMILES is read from it. 12Ado = NCCCCCCCCCCCC(=O)O

Experiments:
[1] = test system: E. coli AG100; assay: Antibiotic MIC with or without sub-MIC polymer (Tables 20, 21); assay type: cell-based, Escherichia coli
[2] = test system: E. coli AG100/ks; assay: as above; assay type: cell-based, Escherichia coli
[3] = test system: E. coli G11a1; assay: as above; assay type: cell-based, Escherichia coli
Description: (§1) MICs were determined by microdilution susceptibility testing in 96-well plates (by Nunc) using inocula of 10^5 bacteria per ml. Cell populations were evaluated by optical density measurements at 620 nm and were calibrated against a set of standards. Hundred (100) μl of a bacterial suspension were added to 100 μl of culture medium (control) or to 100 μl of culture medium containing various polymer concentrations in 2-fold serial dilutions. Inhibition of proliferation was determined by optical density measurements at 620 nm after an incubation period of 24 hours at 37° C.

[4] = test system: E. coli D21; assay: as above; assay type: cell-based, Escherichia coli
[5] = test system: ATCC 29213; assay: microbe, parasite or virus in culture; assay type: cell-based, Staphylococcus aureus; settings: ATCC 29213
Description: as §1
(§2) The fractionary inhibitory (FIC) concentration index for combinations of two antimicrobial agents was calculated as follows: FIC index=FICA+FICB=A/MICA+B/MICB where A and B are the MIC values of agent A and agent B in the combination, MICA and MICB are the MICs of agent A and agent B alone, and FICA and FICB are the FICs of agent A and agent B.
(§3) The FIC indexes were interpreted as follows: less than 0.5 indicates a clear re-sensitizing effect; from 0.5 to 4 indicates a marginal or null re-sensitizing effect; and over 4 indicates antagonism.

[6] = test system: MRSA 15918; assay: microbe, parasite or virus in culture; assay type: cell-based, Staphylococcus aureus; settings: 15918
Description: as §1, §2, §3

[7] = test system: ATCC 25923; assay: microbe, parasite or virus in culture; assay type: cell-based, Staphylococcus aureus; settings: ATCC 25923
Description: as §1

[8] = test system: MRSA 15903; assay: microbe, parasite or virus in culture; assay type: cell-based, Staphylococcus aureus; settings: for MIC, ¼ + MIC OAK: with C12K(KNC10K)3NH2 (SEQ ID NO: 10) at ¼ of its MIC; for MIC, ½ + MIC OAK: with C12K(KNC10K)3NH2 (SEQ ID NO: 10) at ½ of its MIC; for MIC, ⅓ + MIC OAK: with C12K(KNC10K)3NH2 (SEQ ID NO: 10) at ⅓ of its MIC
Description: as §2, §3
Experimental data for FIG. 4 were obtained as follows.

[9] = test system: MRSA 15852; assay type: cell-based, Staphylococcus aureus; settings: 15852
Description: as §2, §3

[10] = test system: MRSA 15903; assay: Sub-MIC time-kill curves (CFU counts); assay type: cell-based, Staphylococcus aureus; settings: sub-MIC time-kill, single agent
Description: At the specified time points of incubation (37° C. under shaking), cultures were subjected to serial 10-fold dilutions (up to 10^6) by adding 50 μl of sample to 450 μl saline (0.85% NaCl). Cell counts were determined using the drop plate method (three 20-μl drops onto LB-agar plates). Plates were incubated at 37° C. and colonies were counted for the calculation after incubation for 24 hours.

[11] = test system: various strains of S. aureus, E. coli P. aeruginosa, P. mirabilis and S. maltophila; assay type: cell-based; settings: strain not stated
Description: Antibacterial activity was determined using various strains of S. aureus, E. coli P. aeruginosa, P. mirabilis and S. maltophila, cultured in LB medium (10 grams/liter trypton, 5 grams/liter yeast extract, 5 grams/liter NaCl, pH 7.4). Bacterial strains include susceptible strains of Staphylococcus aureus, Pseudomonas aeruginosa, Bacillus cereus and Escherichia coli (ATCC, American Type Culture Collection), as well as antibiotic-resistant strains such as oxacillin-resistant Staphylococcus aureus (ORSA) and methicillin-resistant Staphylococcus aureus (MRSA).
as §1

## CC1(C)S[C@@H]2[C@H](NC(=O)[C@H](N)c3ccccc3)C(=O)N2[C@H]1C(=O)O [ampicillin]
[1]; antibiotic alone (Table 20)
  Antibiotic MIC, None: 4 µg/mL
[1]; antibiotic alone (Table 21)
  Antibiotic MIC, None: 4 µg/mL
[2]; antibiotic alone (Table 20)
  Antibiotic MIC, None: >512 µg/mL
[2]; antibiotic alone (Table 21)
  Antibiotic MIC, None: >512 µg/mL
[2]; polymer at ¼ of its MIC
  Antibiotic MIC in presence of C12K(NC8K)5NH2 (SEQ ID NO: 3), +¼ MIC: >512 µg/mL
  Antibiotic MIC in presence of C12K(NC8K)7NH2 (SEQ ID NO: 4), +¼ MIC: >512 µg/mL
[2]; polymer at ½ of its MIC
  Antibiotic MIC in presence of C12K(NC8K)5NH2 (SEQ ID NO: 3), +½ MIC: >512 µg/mL
  Antibiotic MIC in presence of C12K(NC8K)7NH2 (SEQ ID NO: 4), +½ MIC: >512 µg/mL
[2]; polymer at ⅓ of its MIC
  Antibiotic MIC in presence of C12K(NC8K)5NH2 (SEQ ID NO: 3), +⅓ MIC: >512 µg/mL
  Antibiotic MIC in presence of C12K(NC8K)7NH2 (SEQ ID NO: 4), +⅓ MIC: >512 µg/mL
[3]; antibiotic alone (Table 20)
  Antibiotic MIC, None: 64 µg/mL
[3]; antibiotic alone (Table 21)
  Antibiotic MIC, None: 64 µg/mL
[3]; polymer at ¼ of its MIC
  Antibiotic MIC in presence of C12K(NC8K)5NH2 (SEQ ID NO: 3), +¼ MIC: 64 µg/mL
  Antibiotic MIC in presence of C12K(NC8K)7NH2 (SEQ ID NO: 4), +¼ MIC: 64 µg/mL
[3]; polymer at ½ of its MIC
  Antibiotic MIC in presence of C12K(NC8K)5NH2 (SEQ ID NO: 3), +½ MIC: 32 µg/mL
  Antibiotic MIC in presence of C12K(NC8K)7NH2 (SEQ ID NO: 4), +½ MIC: 32 µg/mL
[3]; polymer at ⅓ of its MIC
  Antibiotic MIC in presence of C12K(NC8K)5NH2 (SEQ ID NO: 3), +⅓ MIC: 64 µg/mL
  Antibiotic MIC in presence of C12K(NC8K)7NH2 (SEQ ID NO: 4), +⅓ MIC: 64 µg/mL
[4]; antibiotic alone (Table 20)
  Antibiotic MIC, None: 64 µg/mL
[4]; antibiotic alone (Table 21)
  Antibiotic MIC, None: 64 µg/mL
[4]; polymer at ¼ of its MIC
  Antibiotic MIC in presence of C12K(NC8K)5NH2 (SEQ ID NO: 3), +¼ MIC: 64 µg/mL
  Antibiotic MIC in presence of C12K(NC8K)7NH2 (SEQ ID NO: 4), +¼ MIC: 64 µg/mL
[4]; polymer at ½ of its MIC
  Antibiotic MIC in presence of C12K(NC8K)5NH2 (SEQ ID NO: 3), +½ MIC: 32 µg/mL
  Antibiotic MIC in presence of C12K(NC8K)7NH2 (SEQ ID NO: 4), +½ MIC: 32 µg/mL
[4]; polymer at ⅓ of its MIC
  Antibiotic MIC in presence of C12K(NC8K)5NH2 (SEQ ID NO: 3), +⅓ MIC: 64 µg/mL
  Antibiotic MIC in presence of C12K(NC8K)7NH2 (SEQ ID NO: 4), +⅓ MIC: 64 µg/mL

## NCCCCCCCCCCCC(=O)N[C@@H](CCCCN)C(=O)NCCCCCCCCCCCC(=O)N[C@@H](CCCCN)C(=O)N[C@@H](CCCCN)C(=O)NCCCCCCCCCCCC(=O)N[C@@H](CCCCN)C(N)=O [NC12(KNC12K)2NH2] (H-[12Ado]K[12Ado]KK[12Ado]K-NH2)
[5]
  MIC: 3.1 µM
[6]
  MIC: 6.2 µM
[7]
  MIC: 3.1 µM (≈ 3.48 µg/mL)
[8]; 15903
  MIC: 6.2 µM
[8]; MRSA 15903, polymer + sub-MIC oxacillin
  improvement (decrease) in the polymer's MIC in presence of oxacillin: twofold
[8]; MRSA 15903, polymer alone
  MIC of polymer: 6.25 µM
[8]; MRSA 15903, with oxacillin
  optimal re-sensitization polymer concentration: 2.1 µM
[9]
  MIC: 3.1 µM
[10]
  bactericidal activity, agent alone: no bactericidal activity

## Cc1nnc(SCC2=C(C(=O)O)N3C(=O)[C@@H](NC(=O)Cn4cnnn4)[C@H]3SC2)s1 [cefazolin]
[8]; MRSA 15903
  MIC, ¼ + MIC OAK: 16 µg/mL
  MIC, ½ + MIC OAK: 2 to 4 µg/mL
  MIC, ⅓ + MIC OAK: 8 to 16 µg/mL
[8]; Staphylococcus aureus, MRSA, 24 h, MRSA 15903, antibiotic alone (Table 22), read-out: MIC, Alone
  MIC: 16 µg/mL

## CN[C@H](CC(C)C)C(=O)N[C@H]1C(=O)N[C@@H](CC(N)=O)C(=O)N[C@H]2C(=O)N[C@H]3C(=O)N[C@H](C(=O)N[C@H](C(=O)O)c4cc(O)cc(O)c4-c4cc3ccc4O)[C@H](O)c3ccc(c(Cl)c3)Oc3cc2cc(c3O[C@@H]2O[C@H](CO)[C@@H](O)[C@H](O)[C@H]2O[C@H]2C[C@](C)(N)[C@H](O)[C@H](C)O2)Oc2ccc(cc2Cl)[C@H]1O [vancomycin]
[8]; MRSA 15903
  MIC, ¼ + MIC OAK: 1 µg/mL
  MIC, ½ + MIC OAK: 1 µg/mL
  MIC, ⅓ + MIC OAK: 1 µg/mL
[8]; Staphylococcus aureus, MRSA, 24 h, read-out: MIC, Alone
  MIC: 1 µg/mL

## CCCCC=CCCCCCCCC(=O)N[C@@H](CCCCN)C(=O)N[C@@H](CCCCN)C(=O)NCCCCCCCCCCCC(=O)N[C@@H](CCCCN)C(N)=O [C14(9-ene)KKNC12KNH2]
[11]
  MIC of polymer per se: 6.2 µM
